Source: PubChem BioAssay AID1963960 (Molecular Pharmacology Branch, DTP, NCI, 2024)

System: MDA-MB-468 spheroids with HUVEC/MSC, viability
Assay: Anticancer human tumor MDA-MB-468 cell line growth inhibition [PI3K];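 also: spheroids exposed to agents for seven days before readout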;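 as to viability, T/C: 100% = DMSO vehicle control viability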
Conditions: for IC50: curve of first compound; for viability, T/C: stronger effect = lower value
Method in brief: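 Tumor cells grown as multi-cell spheroids with HUVEC endothelial cells and MSC fibroblast-like stroma were treated with targeted agents combined with inavolisib, alpelisib, duvelisib or copanlisib. Doses fell in half-log steps from near clinical Cmax, else from 10 microM. Viability was measured.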

[1] = second compound 0.0316 µM, first compound 0.0316 µM
[2] = second compound 0.0316 µM, first compound 0.1 µM
[3] = second compound 0.0316 µM, first compound 0.316 µM
[4] = second compound 0.0316 µM, first compound 1 µM
[5] = second compound 0.1 µM, first compound 0.0316 µM
[6] = second compound 0.1 µM, first compound 0.1 µM
[7] = second compound 0.1 µM, first compound 0.316 µM
[8] = second compound 0.1 µM, first compound 1 µM
[9] = second compound 0.316 µM, first compound 0.0316 µM
[10] = second compound 0.316 µM, first compound 0.1 µM
[11] = second compound 0.316 µM, first compound 0.316 µM
[12] = second compound 0.316 µM, first compound 1 µM
[13] = second compound 1 µM, first compound 0.0316 µM
[14] = second compound 1 µM, first compound 0.1 µM
[15] = second compound 1 µM, first compound 0.316 µM
[16] = second compound 1 µM, first compound 1 µM
[17] = second compound 3.16 µM, first compound 0.0316 µM
[18] = second compound 3.16 µM, first compound 0.1 µM
[19] = second compound 3.16 µM, first compound 0.316 µM
[20] = second compound 3.16 µM, first compound 1 µM
[21] = second compound 10 µM, first compound 0.0316 µM
[22] = second compound 10 µM, first compound 0.1 µM
[23] = second compound 10 µM, first compound 0.316 µM
[24] = second compound 10 µM, first compound 1 µM

Work on CC(C)NCC(C(=O)N1CCN(c2ncnc3c2C(C)CC3O)CC1)c1ccc(Cl)cc1 (centres undefined) + Cc1nc(NC(=O)N2CCCC2C(N)=O)sc1-c1ccnc(C(C)(C)C(F)(F)F)c1 yielded an IC50 (second compound 0.0316 µM) of 973 nM, an IC50 (second compound 0.1 µM) of 1200 nM and an IC50 (second compound 0.316 µM) of 674 nM. The IC50 (second compound 1 µM) was 424 nM, the IC50 (second compound 3.16 µM) was 211 nM and the IC50 (second compound 10 µM) was under 31.6 nM. It also gave a viability, T/C [1] of 76.9%, a viability, T/C [2] of 92.2% and a viability, T/C [3] of 60.9%. The viability, T/C [4] was 50.9%, the viability, T/C (second compound 0.0316 µM, first compound 3.16 µM) was 35.1% and the viability, T/C (second compound 0.0316 µM, first compound 10 µM) was 23.2%. The viability, T/C [5] was 84.8%, the viability, T/C [6] was 83.5% and the viability, T/C [7] was 68%. The viability, T/C [8] was 53.4%, the viability, T/C (second compound 0.1 µM, first compound 3.16 µM) was 34.2% and the viability, T/C (second compound 0.1 µM, first compound 10 µM) was 18.4%. For the same compound, the viability, T/C [9] was 84.6%, the viability, T/C [10] was 71.8% and the viability, T/C [11] was 61%. For the same compound, the viability, T/C [12] was 46.9%, the viability, T/C (second compound 0.316 µM, first compound 3.16 µM) was 26.7% and the viability, T/C (second compound 0.316 µM, first compound 10 µM) was 19.5%. It also gave a viability, T/C [13] of 95.8%, a viability, T/C [14] of 66.7% and a viability, T/C [15] of 56.9%. The viability, T/C [16] was 41.9%, the viability, T/C (second compound 1 µM, first compound 3.16 µM) was 23.2% and the viability, T/C (second compound 1 µM, first compound 10 µM) was 18%. It also gave a viability, T/C [17] of 62.9%, a viability, T/C [18] of 61% and a viability, T/C [19] of 42.5%. For the same compound, the viability, T/C [20] was 33%, the viability, T/C (second compound 3.16 µM, first compound 3.16 µM) was 19.3% and the viability, T/C (second compound 3.16 µM, first compound 10 µM) was 14.8%. For the same compound, the viability, T/C [21] was 32.1%, the viability, T/C [22] was 28.8% and the viability, T/C [23] was 22%. It also gave a viability, T/C [24] of 19.1%, a viability, T/C (second compound 10 µM, first compound 3.16 µM) of 9.63% and a viability, T/C (second compound 10 µM, first compound 10 µM) of 6.41%.

CCN1CCN(Cc2ccc(Nc3ncc(F)c(-c4cc(F)c5nc(C)n(C(C)C)c5c4)n3)nc2)CC1 + Cc1nc(NC(=O)N2CCCC2C(N)=O)sc1-c1ccnc(C(C)(C)C(F)(F)F)c1 gave an IC50 (second compound 0.0316 µM) of over 1000 nM, an IC50 (second compound 0.1 µM) of over 1000 nM and an IC50 (second compound 0.316 µM) of over 1000 nM. It also gave an IC50 (second compound 1 µM) of 798 nM, an IC50 (second compound 3.16 µM) of 191 nM and an IC50 (second compound 10 µM) of under 3.16 nM. It also gave a viability, T/C (second compound 0.0316 µM, first compound 0.00316 µM) of 97.9%, a viability, T/C (second compound 0.0316 µM, first compound 0.01 µM) of 90% and a viability, T/C [1] of 83.8%. It also gave a viability, T/C [2] of 113%, a viability, T/C [3] of 90.8% and a viability, T/C [4] of 59.9%. For the same compound, the viability, T/C (second compound 0.1 µM, first compound 0.00316 µM) was 98.3%, the viability, T/C (second compound 0.1 µM, first compound 0.01 µM) was 85.9% and the viability, T/C [5] was 89.1%. It also gave a viability, T/C [6] of 104%, a viability, T/C [7] of 97.9% and a viability, T/C [8] of 55.3%. For the same compound, the viability, T/C (second compound 0.316 µM, first compound 0.00316 µM) was 92.4%, the viability, T/C (second compound 0.316 µM, first compound 0.01 µM) was 94% and the viability, T/C [9] was 93.2%. It also gave a viability, T/C [10] of 81.3%, a viability, T/C [11] of 80.9% and a viability, T/C [12] of 52.7%. The viability, T/C (second compound 1 µM, first compound 0.00316 µM) was 94.9%, the viability, T/C (second compound 1 µM, first compound 0.01 µM) was 84.8% and the viability, T/C [13] was 77%. The viability, T/C [14] was 76.9%, the viability, T/C [15] was 62.1% and the viability, T/C [16] was 46.2%. For the same compound, the viability, T/C (second compound 3.16 µM, first compound 0.00316 µM) was 68.7%, the viability, T/C (second compound 3.16 µM, first compound 0.01 µM) was 58.7% and the viability, T/C [17] was 61.1%. The viability, T/C [18] was 64.8%, the viability, T/C [19] was 37.7% and the viability, T/C [20] was 41.6%. The viability, T/C (second compound 10 µM, first compound 0.00316 µM) was 39.1%, the viability, T/C (second compound 10 µM, first compound 0.01 µM) was 27.3% and the viability, T/C [21] was 29.8%. For the same compound, the viability, T/C [22] was 25.3%, the viability, T/C [23] was 22% and the viability, T/C [24] was 23.5%.
